The record followed here is ChEMBL document CHEMBL1201862, “PubChem BioAssay data set” (2004).

Structures are written as SMILES.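 Growth conditions: 96-well plates. Treatment: test compound, 48 hours, 5 concentrations. Analysis: linear interpolation between bracketing concentrations; unreached endpoints set to highest concentration. Abbreviation: GI50, concentration required for 50% inhibition of growth.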 Activity calls are given as the source filed them. Rule as the data show it: active = GI50 up to about 1.1 µM and inactive = higher. A value given as a limit tells only on which side of the number the result lay.

Common to all, as to test: inhibition of tumour cell growth, NCI panel, 48 h
Experiment [1] deals with NCI-H226.
For experiment [2], the system named is HCT-116.
Experiment [3] deals with SNB-75.
In experiment [4] the test system is UACC-62.
Experiment [5] deals with MDA-MB-231.
Experiment [6] deals with NCI-H23.
Experiment [7] has as its system RPMI-8226.
In experiment [8] the test system is IGROV-1.
The test system of experiment [9] is PC-3.
In experiment [10] the test system is OVCAR-8.
Experiment [11] deals with K562.
Experiment [12] deals with SK-MEL-5.
The subject of experiment [13] is HT-29.
The subject of experiment [14] is OVCAR-3.
The subject of experiment [15] is OVCAR-5.
Experiment [16] concerns Hs-578T.
Experiment [17] relates to U-251.
The test system of experiment [18] is SK-MEL-28.

As to `Cn1c(=O)c2c(no[n+]2[O-])c2ccccc21`, the GI50 in [1] was 16.9 µM (inactive); in experiment [2] it was 12.9 µM (inactive); in experiment [3], 18.6 µM (inactive); in experiment [4] it was 16.7 µM (inactive); in [5] it was 19.7 µM (inactive); in experiment [6], 15 µM (inactive). For the same compound, the GI50 in experiment [7] is 22.2 µM (inactive); in [8] it was 7.24 µM (inactive); in experiment [9] it was 24.9 µM (inactive); in [10] it was 12.7 µM (inactive); in [11] it was 14.3 µM (inactive); in experiment [12], 12.4 µM (inactive). Also, the GI50 in [13] is 17.5 µM (inactive); in experiment [14], 22.1 µM (inactive); in [15] it was > 10 µM (inactive); in experiment [16], 23.3 µM (inactive); in [17], 15.8 µM (inactive).
Regarding `CCOc1ccc2c(c1)c(=O)c1c(NCCN(CC)CC)ccc3nnn2c31`, the GI50 in [1] is 11.9 µM (inactive); in experiment [2] it was > 25.4 µM (inactive); in experiment [4], > 100 µM (inactive); in experiment [5], 18.6 µM (inactive); in experiment [6], 14.9 µM (inactive); in experiment [7], 15.1 µM (inactive). The GI50 in experiment [8] was 9.64 µM (inactive); in experiment [9], 18.8 µM (inactive); in experiment [10], 7.05 µM (inactive); in experiment [18], > 40.4 µM (inactive); in experiment [11], 18.2 µM (inactive); in experiment [12], 16.3 µM (inactive). Besides, the GI50 in experiment [13] was 12.6 µM (inactive); in [14], > 100 µM (inactive); in [15], > 36.1 µM (inactive); in experiment [16], 57 µM (inactive); in experiment [17], 19.7 µM (inactive).
For the compound `CN(CCC(=O)N1CC(CCl)c2ccc([N+](=O)[O-])cc21)CCC(=O)N1CC(CCl)c2ccc([N+](=O)[O-])cc21` (stereo unspecified), the GI50 was 6.95 µM (inactive) in experiment [1]; 12.6 µM (inactive) in [2]; 2.56 µM (inactive) in [3]; 12.3 µM (inactive) in [4]; 16.7 µM (inactive) in experiment [5]; 14.7 µM (inactive) in experiment [6]. The GI50 in experiment [7] is 3.96 µM (inactive); in experiment [9], 6.52 µM (inactive); in experiment [10], 14.3 µM (inactive); in [18], 15.5 µM (inactive); in experiment [11] it was 14.3 µM (inactive); in experiment [12] it was 12.3 µM (inactive). The GI50 in experiment [13] was 11.7 µM (inactive); in [14], 11.5 µM (inactive); in experiment [15], > 100 µM (inactive); in experiment [16] it was 2.85 µM (inactive); in [17], 24.2 µM (inactive).
Turning to `C=C1C2C[C@@H]3O[C@H]4C[C@H]5O[C@@]6(C[C@@H]7O[C@]8(C[C@H](C)[C@@H]9O[C@@H]%10CC(C=O)O[C@@H]%10C[C@@H]9O8)C[C@H](C)[C@@H]7O6)C[C@H]5O[C@H]4[C@H](C)[C@H]3OC(=O)C[C@H]3CC[C@@H]4OC5[C@H]6O[C@]7(CC[C@H]8CC(=C)[C@H](CC[C@@H](C[C@H]1C)O2)O8)CC6O[C@@H]5[C@@H](O7)[C@H]4O3` (stereo partly specified), the GI50 in experiment [1] is < 0.0001 µM (active); in experiment [2], < 0.0001 µM (active); in [3], < 0.0001 µM (active); in experiment [4], < 0.0001 µM (active); in [5], 0.000229 µM (active); in experiment [6] it was < 0.0001 µM (active). Further, the GI50 in experiment [7], in [8], in experiment [9], in experiment [10], in [11] and in experiment [12] was < 0.0001 µM (active) in each case. Moreover, the GI50 in [14], in [16] and in [17] was < 0.0001 µM (active) each time.
